The values that follow come from patent US20100298300A1, “TRIAZOLOPYRAZINE COMPOUNDS USEFUL FOR THE TREATMENT OF DEGENERATIVE & INFLAMMATORY DISEASES” (priority 2006, published 2010).

For assay [1], the system named is MMP1 expression by activated primary synovial fibroblasts. The assay can be described thus: 'MMP assay': MMP1 expression by complex trigger activated synovial fibroblasts (MMP1 ELISA). Format: cell-based. The conditions noted are these: Homo sapiens, Fibroblast; Table 3; RASFs, complex trigger, 48 hrs, MMP1 ELISA.
The target in another assay is T1, MAPKAPK5 (Homo sapiens, UniProt Q8IW41).
T1 sequence (Q8IW41 1-471 isoform Q8IW41-2): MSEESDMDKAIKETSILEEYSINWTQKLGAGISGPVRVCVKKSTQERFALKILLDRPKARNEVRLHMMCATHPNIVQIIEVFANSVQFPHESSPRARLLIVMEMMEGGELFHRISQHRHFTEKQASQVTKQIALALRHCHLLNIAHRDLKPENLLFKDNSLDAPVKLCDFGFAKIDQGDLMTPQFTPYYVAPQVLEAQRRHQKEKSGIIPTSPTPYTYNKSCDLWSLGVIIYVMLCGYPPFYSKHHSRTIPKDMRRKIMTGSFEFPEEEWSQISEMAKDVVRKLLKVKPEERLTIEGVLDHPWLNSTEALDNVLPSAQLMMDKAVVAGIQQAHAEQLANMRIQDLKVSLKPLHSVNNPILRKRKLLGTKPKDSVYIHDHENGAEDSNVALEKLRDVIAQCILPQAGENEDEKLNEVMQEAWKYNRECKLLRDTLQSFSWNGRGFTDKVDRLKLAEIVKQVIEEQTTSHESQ
The experiment in a line: MAPKAP-K5 assay (FlashPlate kinase assay).

The subject of assay [2] is TNFα release by human PBMCs. The assay can be described thus: Cytokine release by LPS stimulated human PBMCs (TNFα ELISA). The conditions noted are these: PBMC, 24 h, Table 5, LPS 1 μg/mL. In kind it is cell-based. The procedure: For the assay PBMCs are seeded at 2.5E6 cells/mL in 160 μL in 96-well plates (Nunc). Serial dilution of the test compounds are made first in DMSO (Sigma) and then diluted 50-fold in M199 medium (Gibco) containing 1% heat-inactivated FBS. Compounds are further 1/10 diluted in the assay plates to obtain final DMSO concentration of 0.2%. Cells are preincubated with the compounds for 1 hr at 37° C., 5% CO2. Then, cells are stimulated with LPS (Escherichia coli serotype 026:B6, Cat. No. L2654, Sigma) that is added in a volume of 20 μL to a final concentration of 1 μg/mL and cells are further cultured for 24 hr. The plates are centrifuged and the supernatant is collected and stored at −80° C. until analysis of appropriate dilutions in ELISAs.
After 4 hr incubation at RT, blocking buffer is removed and plates are washed once with PBST (1×PBS with 0.05% Tween-20 (Sigma)). Then, 40 μL of sample is transferred to the ELISA plates and plates are incubated at 4° C. […] After 2 h of incubation at RT, plates are washed as described above and 35 μL/well of a 1/2000 dilution of streptavidin-HRP conjugate (Cat. No. SNN2004, Biosource) in buffer D is added. After 45 min, plates are washed as described above and incubated for 5 min with 50 μL/well BM Chemiluminescence ELISA Substrate POD (Roche). Readout is performed on the Luminoscan Ascent Luminometer (Labsystems) with an integration time of 100 msec delivering raw data (RLU: relative luminescence units). The following controls are included in the experiments, a maximal signal control, in which the cells are activated by LPS but only the 0.2% DMSO vehicle (and thus no compound) is added. […] A minimal signal control is also included in these experiments. Here, cells are not triggered. […] Where compounds are tested at 8 concentrations (1/3 serial dilution), EC50-values can be calculated by curve fitting of the means of the PIN data achieved for a compound at each test concentration.

Where only a bound is given, the exact number is not on record here.

For `c1nc2c(Nc3ccc(N4CCOCC4)cc3)ncc(-c3ccsc3)n2n1` [Compound 50, (4-Morpholin-4-ylphenyl)-(5-thiophen-3-yl-[1,2,4]triazolo[1,5-a]pyrazin-8-yl)amine], the concentration giving a half-maximal response (EC50) in assay [1] was 0.101 to 0.5 µM; in assay [2], greater than 1 µM. At MAPKAPK5, the IC50 is greater than 1 µM.
On to `CC(C)N1CCN(c2ccc(Nc3ncc(-c4ccsc4)n4ncnc34)cc2)CC1` [Compound 51, [4-(4-Isopropylpiperazin-1-yl)phenyl]-(5-thiophen-3-yl-[1,2,4]triazolo[1,5-a]pyrazin-8-yl)amine], for which the half-maximal effective concentration (EC50) in assay [1] is 0.501 to 1 µM; in assay [2], greater than 1 µM. At MAPKAPK5, this compound returned an IC50 greater than 1 µM.
Take `CCc1[nH]ncc1-c1cnc(Nc2ccc(N3CCOCC3)cc2)c2ncnn12` [Compound 52, 5-(5-Ethyl-1H-pyrazol-4-yl)-N-(4-morpholinophenyl)-[1,2,4]triazolo[1,5-a]pyrazin-8-amine]: the half-maximal effective concentration (EC50) in assay [1] and in assay [2] was greater than 1 µM each time. The same compound returned an IC50 against MAPKAPK5 greater than 1 µM.
In the case of `O=C1NS(=O)(=O)c2cc(-c3cnc(Nc4ccc(N5CCOCC5)cc4)c4ncnn34)ccc21` [Compound 53, 6-[8-(4-Morpholin-4-yl-phenylamino)-[1,2,4]triazolo[1,5-a]pyrazin-5-yl]-1,1-dioxo-1,2-dihydro-1λ^6-benzo[d]isothiazol-3-one], the values for the EC50 in assay [1] and in assay [2] were 0.501 to 1 µM and greater than 1 µM, respectively. On MAPKAPK5, this compound showed an IC50 greater than 1 µM.
As to `NC(=O)c1cc(-c2cnc(Nc3ccc(N4CCN(CC5CC5)CC4)nc3)c3ncnn23)cs1` [Compound 54, 4-{8-[6-(4-[Cyclopropylmethyl]piperazin-1-yl)-pyridin-3-ylamino]-[1,2,4]triazolo[1,5-a]pyrazin-5-yl}thiophene-2-carboxylic acid amide], the values for the concentration for a half-maximal effect (EC50) in assay [1] and in assay [2] were 0.101 to 0.5 µM and 0.501 to 1 µM, respectively. Also, the IC50 on MAPKAPK5 lay in the range of 0.101 to 0.5 µM.
As for `NC(=O)c1cc(-c2cnc(Nc3ccc(N4CCN(CC(F)(F)F)CC4)nc3)c3ncnn23)cs1` [Compound 56, 4-(8-{6-[4-(2,2,2-Trifluoroethyl)piperazin-1-yl]-pyridin-3-ylamino}-[1,2,4]triazolo[1,5-a]pyrazin-5-yl)thiophene-2-carboxylic acid amide], the EC50 was 0.501 to 1 µM in assay [1] and greater than 1 µM in assay [2]. The same compound had an IC50 at MAPKAPK5 of 0.501 to 1 µM.
In the case of `NC(=O)c1cc(-c2cnc(Nc3ccc(N4CCN(CC(F)(F)F)CC4)cc3)c3ncnn23)cs1` [Compound 57, 4-(8-{4-[4-(2,2,2-Trifluoroethyl)piperazin-1-yl]-phenylamino}-[1,2,4]triazolo[1,5-a]pyrazin-5-yl)thiophene-2-carboxylic acid amide], the results for the 50% effective concentration (EC50) in assay [1] and in assay [2] were 0.101 to 0.5 µM and greater than 1 µM, respectively. The 50% inhibitory concentration (IC50) against MAPKAPK5 was 0.101 to 0.5 µM.
For the compound `NC(=O)c1cc(-c2cnc(Nc3ccc(N4CCN(CC5CC5)CC4)cc3)c3ncnn23)cs1` [Compound 58, 4-{8-[4-(4-(Cyclopropylmethyl)piperazin-1-yl)-phenylamino]-[1,2,4]triazolo[1,5-a]pyrazin-5-yl}thiophene-2-carboxylic acid amide], the concentration giving a half-maximal response (EC50) in assay [1] is 0.101 to 0.5 µM; in assay [2], greater than 1 µM. On MAPKAPK5, the IC50 fell in the range of 0.101 to 0.5 µM.
With `c1nc2c(Nc3ccc(N4CCN(C5CC5)CC4)cc3)ncc(-c3cn[nH]c3)n2n1` [Compound 59, [4-(4-Cyclopropylpiperazin-1-yl)phenyl]-[5-(1H-pyrazol-4-yl)-[1,2,4]triazolo[1,5-a]pyrazin-8-yl]amine], the 50% effective concentration (EC50) in assay [1] and in assay [2] was greater than 1 µM each time. The half-inhibitory concentration (IC50) on MAPKAPK5 was greater than 1 µM.
On to `c1nc2c(Nc3ccc(N4CCN(C5CC5)CC4)nc3)ncc(-c3cn[nH]c3)n2n1` [Compound 60, [6-(4-Cyclopropylpiperazin-1-yl)pyridin-3-yl]-[5-(1H-pyrazol-4-yl)-[1,2,4]triazolo[1,5-a]pyrazin-8-yl]amine], for which the EC50 in assay [1] and in assay [2] was greater than 1 µM each time. In addition, the IC50 against MAPKAPK5 is greater than 1 µM.
On to `NC(=O)c1nc(-c2cnc(Nc3ccc(N4CCOCC4)cc3)c3ncnn23)cs1` [Compound 61, 4-[8-(4-Morpholin-4-ylphenylamino)-[1,2,4]triazolo[1,5-a]pyrazin-5-yl]thiazole-2-carboxylic acid amide], for which the figures for the 50% effective concentration (EC50) in assay [1] and in assay [2] were 0.501 to 1 µM and greater than 1 µM, respectively. Further, the 50% inhibitory concentration (IC50) on MAPKAPK5 was greater than 1 µM.
`CC(C)N1CCN(c2ccc(Nc3ncc(-c4csc(C(N)=O)n4)n4ncnc34)cc2)CC1` [Compound 62, 4-{8-[4-(4-Isopropylpiperazin-1-yl)phenylamino]-[1,2,4]triazolo[1,5-a]pyrazin-5-yl}thiazole-2-carboxylic acid amide]: the EC50 is greater than 1 µM in assay [1] and 0.501 to 1 µM in assay [2]. The same compound had an IC50 against MAPKAPK5 of 0.501 to 1 µM.
In the case of `NC(=O)c1cc(-c2cnc(Nc3ccc(C4CCN(CC(F)(F)F)CC4)cc3)c3ncnn23)cs1` [Compound 63, 4-(8-{4-[1-(2,2,2-Trifluoroethyl)piperidin-4-yl]phenylamino}-[1,2,4]triazolo[1,5-a]pyrazin-5-yl)thiophene-2-carboxylic acid amide], the EC50 was 0.101 to 0.5 µM in assay [1] and greater than 1 µM in assay [2]. In addition, the IC50 at MAPKAPK5 was greater than 1 µM.
Regarding `FC(F)(F)CN1CCC(c2ccc(Nc3ncc(-c4cn[nH]c4)n4ncnc34)cc2)CC1` [Compound 64], the EC50 in assay [1] and in assay [2] was greater than 1 µM throughout. For the same compound, the IC50 on MAPKAPK5 is greater than 1 µM.
Regarding `O=C1NCc2cc(-c3cnc(Nc4ccc(OCCN5CCOCC5)cc4)c4ncnn34)ccc21` [Compound 65, 5-(8-(4-(2-Morpholinoethoxy)phenylamino)-[1,2,4]triazolo[1,5-a]pyrazin-5-yl)isoindolin-1-one], the EC50 in assay [1] is 0.101 to 0.5 µM; in assay [2] it was greater than 1 µM. Also, the IC50 at MAPKAPK5 fell in the range of 0.101 to 0.5 µM.
Consider `c1nc2c(Nc3ccc(N4CCOCC4)cc3)ncc(-c3ccc4ncsc4c3)n2n1` [Compound 66], for which the half-maximal effective concentration (EC50) in assay [1] was 0.501 to 1 µM; in assay [2] it was greater than 1 µM. At MAPKAPK5, this compound displayed an IC50 greater than 1 µM.
Regarding `Fc1cc(N2CCOCC2)ccc1Nc1ncc(-c2cn[nH]c2)n2ncnc12` [Compound 67, N-(2-Fluoro-4-morpholinophenyl)-5-(1H-pyrazol-4-yl)-[1,2,4]triazolo[1,5-a]pyrazin-8-amine], the concentration for a half-maximal effect (EC50) in assay [1] and in assay [2] was greater than 1 µM throughout. At MAPKAPK5, this compound showed an IC50 greater than 1 µM.
Turning to `Clc1cc(N2CCOCC2)ccc1Nc1ncc(-c2cn[nH]c2)n2ncnc12` [Compound 68], the EC50 in assay [1] and in assay [2] was greater than 1 µM in each case. The compound further gave an IC50 against MAPKAPK5 greater than 1 µM.
On to `CC(=O)c1ccc(-c2cnc(Nc3ccc(N4CCOCC4)cc3)c3ncnn23)s1` [Compound 69], for which the EC50 in assay [1] and in assay [2] was greater than 1 µM throughout. The compound further returned a concentration for half-maximal inhibition (IC50) on MAPKAPK5 greater than 1 µM.
Regarding `OCc1n[nH]cc1-c1cnc(Nc2ccc(N3CCOCC3)cc2)c2ncnn12` [Compound 70, (4-(8-(4-Morpholinophenylamino)-[1,2,4]triazolo[1,5-a]pyrazin-5-yl)-1H-pyrazol-5-yl)methanol], the EC50 in assay [1] and in assay [2] was greater than 1 µM in each case. For the same compound, at MAPKAPK5, the half-inhibitory concentration (IC50) was greater than 1 µM.
As to `O=C1CCC(c2ccc(-c3cnc(Nc4ccc(N5CCOCC5)cc4)c4ncnn34)cc2)=NN1` [Compound 71], the concentration for a half-maximal effect (EC50) in assay [1] and in assay [2] was greater than 1 µM each time. In addition, at MAPKAPK5, the concentration for half-maximal inhibition (IC50) was greater than 1 µM.
As for `c1nc2c(Nc3ccc(N4CCOCC4)cc3)ncc(-c3ccc4nonc4c3)n2n1` [Compound 72], the concentration for a half-maximal effect (EC50) in assay [1] and in assay [2] was greater than 1 µM throughout. At MAPKAPK5, this compound displayed an IC50 greater than 1 µM.
`CNC(=O)c1nc(-c2cnc(Nc3ccc(N4CCOCC4)cc3)c3ncnn23)cs1` [Compound 73, 4-[8-(4-Morpholin-4-yl-phenylamino)-[1,2,4]triazolo[1,5-a]pyrazin-5-yl]-thiazole-2-carboxylic acid methylamide]: the 50% effective concentration (EC50) in assay [1] and in assay [2] was greater than 1 µM each time. The compound also had an IC50 against MAPKAPK5 greater than 1 µM.
